# Laboratory results reported in patent US20080193563A1, “HARNESSING WNT SIGNALING TO RESTRICT HIV REPLICATION” (priority 2006, published 2008).
# Columns and labels:
# IFNγ receptor on HFA = experiment: Cytokine receptor expression on HFA by flow cytometry; type: cell-based, human; details: untreated 6%
# Protocol: U87MG (A) or HFA (B) were left untreated or treated with GM-CSF (50 ng/ml), IFNγ100 ng/ml) or TNFγ100 ng/ml). […] Percent expression of GM-CSF receptor (R), IFNγR, and TNFγR was measured 24 hours post-stimulation by flow cytometry. Data is representative of three experiments. Error bars represent standard deviations of the mean.
# Prior to evaluating if GM-CSF, IFNγ, and TNFγ can augment HIV replication of astrocytes, a question was whether U87MG and HFA express the respective cytokine receptors. U87MG and HFA were treated with or without the respective cytokine for 24 hours and cytokine receptor expression was evaluated by flow cytometry. Approximately 35% of U87MG expressed the IFNγ receptor and a low level of GM-CSF and TNFγ receptors (<8%; FIG. 3A). […] Untreated HFA expressed only low levels of IFNγ receptor (6%) and this expression was abrogated with IFNγ treatment. GM-CSF and TNFγ receptors were not expressed on HFA.
# HIV-Bal in HFA = experiment: Cytokine pre-stimulation and HIV-Bal replication in human fetal astrocytes, p24 ELISA; type: cell-based; details: 24 h pre-stimulation, p24 day 7
# Protocol: U87MG (A) and HFA (B) were pre-stimulated with increasing doses of either GM-CSF or IFNγ for 24 h followed by HIV-BAL infection for 24 hours. HIV replication was determined by measuring HIV p24 levels by ELISA seven days post-infection. The dotted line represents basal level of HIV infection of astrocytes without cytokine pre-treatment. Data is representative of three experiments performed in quadruplicate. Error bars represent standard deviations of the mean. Asterisks denote significant values (p<0.05) in comparison to untreated cultures as evaluated by analysis of variance.
# To determine if pre-stimulation of astrocytes primes astrocytes, for productive HIV infection, U87MG and HFA were pre-treated for 24 hours with TNFγ, GM-CSF, or IFNγ at various concentrations (0-1000 ng/ml) then infected with HIV-Bal at 10 ng of HIV p24/1×10^6 cells for 24 hours. The cells were then washed extensively or trypsinized to remove bound virus and propagated in the presence of the respective cytokine concentration. HIV infection was monitored by p24 ELISA seven days post-infection. […]
# IFN-γ Treatment and HIV Infection. […] HIV infection was monitored at day 7 postinfection by measuring p24 levels by conventional enzyme-linked immunosorbent assay (ELISA) (National Cancer Institute, Frederick, Md.).
# [1] = tested on: CD4, hMR, CCR1, D6 on U87MG; experiment: HIV receptor and chemokine co-receptor expression on U87MG by flow cytometry; type: cell-based, human
# Protocol: (§1) U87MG (A) and HFA (B) were left untreated or treated GM-CSF (50 ng/ml) or IFNγ (100 ng/ml) for 24 h. Expression of receptors on the x-axis was measured by flow cytometry. Isotype refers to mouse IgG. Data is representative of three experiments. Error bars represent standard deviation of the mean. (C). IFNγ up-regulates D6 on U87MG cells. U87MG were left untreated or treated with IFNγ. After 3 days, the cells were immunostained with anti-D6 or isotype antibodies. The first histogram (peak) represents isotype control; the dark shaded histogram represents untreated cultures, and the third histogram (peak) represents IFNγ-treated cultures. Data is typical of quadruplet experiments.
# (§2) Because IFNγ was a potent cytokine in inducing HIV infection of astrocytes, it was determined whether IFNγ treatment modulated key HIV receptors CD4, human mannose receptor D6 and co-receptors (CCR1, CCR2, CCR3, CXCR4, and CCR5) for HIV infection. U87MG is human mannose receptor (hMR) […] (FIG. 5). However, hMR was not detected on HFA, which may be regulated by the differentiation stage of the HFA (FIG. 5 (B)). CD4 and hMR expression in both U87MG and HFA was not augmented by IFNγ or GM-CSF (FIG. 5(A)-(B)). […] HFA were positive for CXCR4 (12%), but its expression was not augmented by GM-CSF or IFNγ treatment (FIG. 5B). IFNγ was reported to enhance CXCR4 and CCR5 expression on simian adult astrocytes, which is in contrast to data on human fetal astrocytes highlighting a discrepancy between simian adult and human fetal astrocytes. […] Infection of U87MG and HFA with a T-tropic isolate (IIIB), while it was productive, was not enhanced by cytokine pre-treatment. This may be a consequence of the laboratory adapted HIV IIIB, therefore primary T-tropic or dual tropic strains may still be responsive to IFNγ pre-treatment of astrocytes. Recently, the CC chemokine receptor D6 was identified as a functional co-receptor for primary HIV infection of astrocytes.
# CD4, hMR, CXCR4 on HFA = experiment: HIV receptor and chemokine co-receptor expression on HFA by flow cytometry; type: cell-based, human
# Protocol: as §1, §2
substance,measurement,setting,value
"IFNγ: cytokine secreted by lymphocytes, activated microglia and astrocytes; used to prime astrocytes",IFNγ receptor expression after treatment,IFNγ receptor on HFA,abrogated
same,Induction of HIV replication,HIV-Bal in HFA,2 fold
same,CD4 and hMR expression,[1],not augmented
same,Up-regulation of CCR1 expression,[1]; 24 h treatment,4 fold
same,Up-regulation of D6 expression,[1]; 3 days,6 fold
same,CD4 and hMR expression,"CD4, hMR, CXCR4 on HFA",not augmented
same,CXCR4 expression,"CD4, hMR, CXCR4 on HFA; untreated 12%",not augmented
